Assay results published in ChEMBL document CHEMBL1201862, “PubChem BioAssay data set” (2004).
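96-well plates; 48 h exposure; 5 concentrations. Endpoints by linear interpolation between flanking doses. Not reached: highest tested concentration assigned. Here, GI50 denotes the concentration required for 50% inhibition of growth.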 The source made the active and inactive calls. Cut-off read from the data, not from the text of the source: active = GI50 up to about 1.1 µM and inactive = higher.

Legend:
Assay in all cases: NCI-60 cell line screen, 48 h
[1] = test system: NCI-H460
[2] = test system: BT-549
[3] = test system: SK-MEL-5
[4] = test system: M14
[5] = test system: SF-295
[6] = test system: OVCAR-5
[7] = test system: DU-145
[8] = test system: MCF7
[9] = test system: MDA-MB-231
[10] = test system: OVCAR-3
[11] = test system: LOX IMVI
[12] = test system: ACHN
[13] = test system: TK-10
[14] = test system: NCI-H23
[15] = test system: HOP-62
[16] = test system: SK-MEL-28
[17] = test system: T47D
[18] = test system: HT-29
[19] = test system: UO-31
[20] = test system: SK-OV-3
[21] = test system: IGROV-1
[22] = test system: MDA-N
[23] = test system: CAKI-1
[24] = test system: OVCAR-4
[25] = test system: SNB-75
[26] = test system: CCRF-CEM
[27] = test system: HCT-15
[28] = test system: RPMI-8226
[29] = test system: SW-620
[30] = test system: KM12
[31] = test system: 786-0
[32] = test system: COLO 205
[33] = test system: A498
[34] = test system: NCI-H522
[35] = test system: HL-60
[36] = test system: SR
[37] = test system: MOLT-4
[38] = test system: SF-268
[39] = test system: NCI-H226
[40] = test system: SN12C
[41] = test system: Hs-578T
[42] = test system: K562
[43] = test system: OVCAR-8
[44] = test system: U-251
[45] = test system: UACC-62
[46] = test system: UACC-257
[47] = test system: MDA-MB-435
[48] = test system: PC-3
[49] = test system: A549
[50] = test system: SF-539
[51] = test system: SK-MEL-2
[52] = test system: EKVX
[53] = test system: NCI/ADR-RES
[54] = test system: SNB-19
[55] = test system: HCT-116
[56] = test system: Malme-3M
[57] = test system: HOP-92
[58] = test system: HCC 2998
[59] = test system: RXF 393

CC(=O)Nc1ccc2nncnc2c1
GI50 [1]: > 100 µM (inactive)
GI50 [2]: > 100 µM (inactive)
GI50 [3]: > 100 µM (inactive)
GI50 [4]: > 100 µM (inactive)
GI50 [5]: > 100 µM (inactive)
GI50 [6]: > 100 µM (inactive)
GI50 [7]: > 100 µM (inactive)
GI50 [8]: > 100 µM (inactive)
GI50 [9]: > 100 µM (inactive)
GI50 [10]: > 100 µM (inactive)
GI50 [11]: > 100 µM (inactive)
GI50 [12]: > 100 µM (inactive)
GI50 [13]: > 100 µM (inactive)
GI50 [14]: > 100 µM (inactive)
GI50 [15]: > 100 µM (inactive)
GI50 [16]: > 100 µM (inactive)
GI50 [17]: > 100 µM (inactive)
GI50 [18]: > 100 µM (inactive)
GI50 [19]: > 100 µM (inactive)
GI50 [20]: > 100 µM (inactive)
GI50 [21]: > 100 µM (inactive)
GI50 [22]: > 100 µM (inactive)
GI50 [23]: > 100 µM (inactive)
GI50 [24]: > 100 µM (inactive)
GI50 [25]: > 100 µM (inactive)
GI50 [26]: > 100 µM (inactive)
GI50 [27]: > 100 µM
GI50 [28]: > 100 µM (inactive)
GI50 [29]: > 100 µM (inactive)
GI50 [30]: > 100 µM (inactive)
GI50 [31]: > 100 µM (inactive)
GI50 [32]: > 100 µM (inactive)
GI50 [33]: > 100 µM (inactive)
GI50 [34]: > 100 µM (inactive)
GI50 [35]: > 100 µM (inactive)
GI50 [36]: > 100 µM (inactive)
GI50 [37]: > 100 µM (inactive)
GI50 [38]: > 100 µM (inactive)
GI50 [39]: > 100 µM (inactive)
GI50 [40]: > 100 µM (inactive)
GI50 [41]: 77.6 µM (inactive)
GI50 [42]: > 100 µM (inactive)
GI50 [43]: > 10 µM (inactive)
GI50 [44]: > 100 µM (inactive)
GI50 [45]: > 100 µM (inactive)
GI50 [46]: > 100 µM (inactive)
GI50 [47]: > 100 µM (inactive)
GI50 [48]: > 100 µM (inactive)
GI50 [49]: > 100 µM (inactive)
GI50 [50]: > 100 µM (inactive)
GI50 [51]: > 100 µM (inactive)
GI50 [52]: > 100 µM (inactive)
GI50 [53]: > 100 µM (inactive)
GI50 [54]: > 100 µM (inactive)
GI50 [55]: > 100 µM (inactive)

CCOC(=O)/C=C(/C(=O)OCC)n1ccc(N)nc1=O
GI50 [1]: > 100 µM (inactive)
GI50 [2]: 61.4 µM (inactive)
GI50 [3]: > 100 µM (inactive)
GI50 [4]: > 100 µM (inactive)
GI50 [5]: > 100 µM (inactive)
GI50 [6]: 47.9 µM (inactive)
GI50 [7]: > 100 µM (inactive)
GI50 [8]: > 100 µM (inactive)
GI50 [9]: > 100 µM (inactive)
GI50 [10]: > 100 µM (inactive)
GI50 [11]: 97.7 µM (inactive)
GI50 [12]: > 100 µM (inactive)
GI50 [13]: > 100 µM (inactive)
GI50 [14]: > 100 µM (inactive)
GI50 [15]: > 100 µM (inactive)
GI50 [16]: > 100 µM (inactive)
GI50 [17]: > 100 µM (inactive)
GI50 [18]: 62.1 µM (inactive)
GI50 [19]: > 100 µM (inactive)
GI50 [56]: 44.6 µM (inactive)
GI50 [20]: > 100 µM (inactive)
GI50 [21]: > 100 µM (inactive)
GI50 [22]: > 100 µM (inactive)
GI50 [23]: 37 µM (inactive)
GI50 [24]: 56 µM (inactive)
GI50 [25]: 95.1 µM (inactive)
GI50 [26]: 25.5 µM (inactive)
GI50 [27]: > 100 µM
GI50 [28]: > 100 µM (inactive)
GI50 [29]: 72.3 µM (inactive)
GI50 [30]: > 100 µM (inactive)
GI50 [31]: > 100 µM (inactive)
GI50 [32]: 66.1 µM (inactive)
GI50 [57]: 53.3 µM (inactive)
GI50 [34]: 23.6 µM (inactive)
GI50 [35]: 70.6 µM (inactive)
GI50 [36]: 89.1 µM (inactive)
GI50 [37]: 92 µM (inactive)
GI50 [38]: > 100 µM (inactive)
GI50 [39]: > 100 µM (inactive)
GI50 [58]: > 100 µM (inactive)
GI50 [40]: > 100 µM (inactive)
GI50 [41]: > 100 µM (inactive)
GI50 [42]: > 100 µM (inactive)
GI50 [43]: > 100 µM (inactive)
GI50 [44]: > 100 µM (inactive)
GI50 [45]: > 100 µM (inactive)
GI50 [46]: > 100 µM (inactive)
GI50 [47]: > 100 µM (inactive)
GI50 [48]: > 100 µM (inactive)
GI50 [49]: > 100 µM (inactive)
GI50 [50]: > 100 µM (inactive)
GI50 [51]: > 100 µM (inactive)
GI50 [52]: 84.9 µM (inactive)
GI50 [53]: > 100 µM (inactive)
GI50 [54]: > 100 µM (inactive)
GI50 [55]: > 100 µM (inactive)

Cc1cccc(C(O)c2ccccn2)c1O (centres undefined)
GI50 [1]: > 100 µM (inactive)
GI50 [2]: > 100 µM (inactive)
GI50 [3]: > 100 µM (inactive)
GI50 [5]: > 100 µM (inactive)
GI50 [6]: > 100 µM (inactive)
GI50 [59]: > 100 µM (inactive)
GI50 [7]: > 100 µM (inactive)
GI50 [8]: > 100 µM (inactive)
GI50 [9]: > 100 µM (inactive)
GI50 [10]: > 100 µM (inactive)
GI50 [11]: > 100 µM (inactive)
GI50 [12]: > 100 µM (inactive)
GI50 [13]: > 100 µM (inactive)
GI50 [14]: > 100 µM (inactive)
GI50 [15]: > 100 µM (inactive)
GI50 [16]: > 100 µM (inactive)
GI50 [17]: 15.7 µM (inactive)
GI50 [18]: > 100 µM (inactive)
GI50 [19]: > 100 µM (inactive)
GI50 [56]: > 100 µM (inactive)
GI50 [21]: > 100 µM (inactive)
GI50 [22]: > 100 µM (inactive)
GI50 [23]: > 100 µM (inactive)
GI50 [25]: > 100 µM (inactive)
GI50 [26]: > 100 µM (inactive)
GI50 [27]: 83.2 µM
GI50 [28]: > 100 µM (inactive)
GI50 [29]: > 100 µM (inactive)
GI50 [30]: > 100 µM (inactive)
GI50 [32]: > 100 µM (inactive)
GI50 [34]: > 100 µM (inactive)
GI50 [35]: > 100 µM (inactive)
GI50 [36]: > 100 µM (inactive)
GI50 [37]: > 100 µM (inactive)
GI50 [38]: > 100 µM (inactive)
GI50 [39]: > 100 µM (inactive)
GI50 [58]: > 100 µM (inactive)
GI50 [40]: > 100 µM (inactive)
GI50 [41]: > 100 µM (inactive)
GI50 [42]: > 100 µM (inactive)
GI50 [43]: > 100 µM (inactive)
GI50 [44]: > 100 µM (inactive)
GI50 [45]: 74.6 µM (inactive)
GI50 [46]: > 100 µM (inactive)
GI50 [47]: > 100 µM (inactive)
GI50 [48]: > 100 µM (inactive)
GI50 [49]: > 100 µM (inactive)
GI50 [50]: > 100 µM (inactive)
GI50 [52]: > 100 µM (inactive)
GI50 [53]: > 100 µM (inactive)
GI50 [54]: > 100 µM (inactive)
GI50 [55]: > 100 µM (inactive)
